Measurements published in US20100035866A1, “NOVEL SUBSTITUTED-1, 1-DIOXO-BENZO[1,2,4]THIADIAZIN-3ONES, PREPARATION METHOD THEREOF, AND PHARMACEUTICAL COMPOSITION CONTAINING THE SAME” (KOREA RESEARCH INSTITUTE OF CHEMICAL TECHNOLOGY, priority 2006, published 2010).

Assays:
5-HT1a = molecular target: T1, 5-HT1a (Homo sapiens, UniProt P08908); experiment: Radioligand binding, 5-HT receptor family: 5-HT1a ([3H]8-OH-DPAT); settings: CHO-K1 human recombinant receptor, [3H]8-OH-DPAT 0.5 nM; read-out: Binding affinity, IC50 (nM), 5-HT1a
T1 construct: purchased Euroscreen/BioSignal Packard Inc
T1 sequence (P08908 1-422): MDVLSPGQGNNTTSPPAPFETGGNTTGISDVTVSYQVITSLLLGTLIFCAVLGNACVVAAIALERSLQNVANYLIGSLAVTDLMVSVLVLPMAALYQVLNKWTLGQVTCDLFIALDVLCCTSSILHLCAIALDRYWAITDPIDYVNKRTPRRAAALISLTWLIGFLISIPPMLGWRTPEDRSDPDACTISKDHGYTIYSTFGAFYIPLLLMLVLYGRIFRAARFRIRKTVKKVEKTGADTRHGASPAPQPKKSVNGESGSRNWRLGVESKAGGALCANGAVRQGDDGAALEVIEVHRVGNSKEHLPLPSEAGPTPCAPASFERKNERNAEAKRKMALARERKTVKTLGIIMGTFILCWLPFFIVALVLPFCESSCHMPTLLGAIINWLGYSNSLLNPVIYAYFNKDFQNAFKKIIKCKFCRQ

5-HT2a = molecular target: T2, 5-HT2a (Homo sapiens, UniProt P28223); experiment: Radioligand binding, 5-HT receptor family: 5-HT2a ([3H]Ketanserin); settings: CHO-K1 human recombinant receptor, [3H]Ketanserin 1 nM; read-out: Binding affinity, IC50 (nM), 5-HT2a
T2 construct: purchased Euroscreen/BioSignal Packard Inc
T2 sequence (P28223 whole entry): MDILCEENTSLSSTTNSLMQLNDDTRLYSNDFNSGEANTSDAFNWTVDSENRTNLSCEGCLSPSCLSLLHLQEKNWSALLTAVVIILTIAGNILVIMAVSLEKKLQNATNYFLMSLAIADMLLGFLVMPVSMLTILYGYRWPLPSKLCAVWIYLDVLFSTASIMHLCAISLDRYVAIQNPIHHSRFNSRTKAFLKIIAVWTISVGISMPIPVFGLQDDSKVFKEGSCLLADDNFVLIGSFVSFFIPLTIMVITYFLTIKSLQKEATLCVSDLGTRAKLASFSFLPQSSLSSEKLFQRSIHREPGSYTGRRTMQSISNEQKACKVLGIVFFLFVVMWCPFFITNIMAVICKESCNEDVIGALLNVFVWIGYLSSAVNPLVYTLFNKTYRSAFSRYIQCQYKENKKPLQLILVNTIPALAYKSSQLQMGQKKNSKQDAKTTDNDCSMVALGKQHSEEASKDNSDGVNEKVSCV

5-HT2c = molecular target: T3, 5-HT2c (Homo sapiens, UniProt P28335); experiment: Radioligand binding, 5-HT receptor family: 5-HT2c ([3H]Mesulergine); settings: CHO-K1 human recombinant receptor, [3H]Mesulergine 1 nM; read-out: Binding affinity, IC50 (nM), 5-HT2c
T3 construct: purchased Euroscreen/BioSignal Packard Inc
T3 sequence (P28335 33-458): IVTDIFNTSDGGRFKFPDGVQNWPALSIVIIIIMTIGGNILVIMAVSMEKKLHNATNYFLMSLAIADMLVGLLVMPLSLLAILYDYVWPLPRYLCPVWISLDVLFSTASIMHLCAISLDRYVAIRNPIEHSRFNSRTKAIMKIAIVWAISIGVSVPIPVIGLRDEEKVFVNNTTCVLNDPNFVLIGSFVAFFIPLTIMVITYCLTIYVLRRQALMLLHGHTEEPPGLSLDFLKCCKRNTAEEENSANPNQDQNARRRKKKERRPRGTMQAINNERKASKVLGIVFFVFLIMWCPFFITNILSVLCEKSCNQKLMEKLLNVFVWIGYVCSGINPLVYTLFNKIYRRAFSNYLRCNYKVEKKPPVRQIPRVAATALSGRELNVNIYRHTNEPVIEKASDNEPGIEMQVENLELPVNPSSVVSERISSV

5-HT7 = molecular target: T4, 5-HT7 (Homo sapiens, UniProt P34969); experiment: Radioligand binding, 5-HT receptor family: 5-HT7 ([3H]LSD); settings: CHO-K1 human recombinant receptor, [3H]LSD 3 nM; read-out: Binding affinity, IC50 (nM), 5-HT7
T4 construct: purchased Euroscreen/BioSignal Packard Inc
T4 sequence (P34969 whole entry): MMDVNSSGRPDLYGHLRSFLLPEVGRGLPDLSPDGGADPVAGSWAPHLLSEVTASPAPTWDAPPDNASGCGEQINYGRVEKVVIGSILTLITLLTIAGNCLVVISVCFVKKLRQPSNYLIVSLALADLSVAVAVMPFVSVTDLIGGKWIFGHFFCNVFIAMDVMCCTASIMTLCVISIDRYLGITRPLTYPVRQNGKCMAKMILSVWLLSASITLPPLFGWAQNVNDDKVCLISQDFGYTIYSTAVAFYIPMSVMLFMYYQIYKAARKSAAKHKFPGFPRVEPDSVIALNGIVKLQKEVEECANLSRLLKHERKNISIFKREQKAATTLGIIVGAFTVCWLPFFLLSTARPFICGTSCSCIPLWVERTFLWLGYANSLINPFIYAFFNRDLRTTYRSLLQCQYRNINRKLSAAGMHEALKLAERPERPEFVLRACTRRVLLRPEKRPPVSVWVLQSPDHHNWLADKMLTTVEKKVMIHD
Protocol: Radioligand bindings were performed according to the test method provided by the supplier of receptor membrane (Euroscreen/BioSignal Packard Inc.). The detailed assay conditions and the results were shown in the following Table 3 and Table 4, respectively.

D1 = D1 (Homo sapiens, UniProt P21728); experiment: Dopamine receptor family binding: D1; settings: read-out: Binding affinity, IC50 (nM), D1
D1, sequence (P21728 whole entry): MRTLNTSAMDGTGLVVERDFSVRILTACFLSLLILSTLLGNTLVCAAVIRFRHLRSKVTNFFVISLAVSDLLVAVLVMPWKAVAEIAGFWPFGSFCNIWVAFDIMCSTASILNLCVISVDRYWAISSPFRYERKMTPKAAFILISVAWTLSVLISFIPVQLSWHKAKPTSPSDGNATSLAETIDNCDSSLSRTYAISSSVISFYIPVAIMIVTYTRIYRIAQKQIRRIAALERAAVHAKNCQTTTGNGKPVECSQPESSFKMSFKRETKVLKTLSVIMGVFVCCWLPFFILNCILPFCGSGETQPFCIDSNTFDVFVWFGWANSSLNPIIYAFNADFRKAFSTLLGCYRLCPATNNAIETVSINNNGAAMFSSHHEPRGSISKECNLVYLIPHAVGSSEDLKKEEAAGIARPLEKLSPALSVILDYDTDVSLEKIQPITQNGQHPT

hD2L receptor = molecular target: T5, hD2L receptor (Homo sapiens, UniProt P14416); experiment: Dopamine receptor family binding: D2 ([3H]spiperone); settings: [3H]spiperone 1 nM; read-out: Binding affinity, IC50 (nM), D2
T5 construct: purchased BioSignal Packard Inc., Montreal, Canada
T5 sequence (P14416 whole entry): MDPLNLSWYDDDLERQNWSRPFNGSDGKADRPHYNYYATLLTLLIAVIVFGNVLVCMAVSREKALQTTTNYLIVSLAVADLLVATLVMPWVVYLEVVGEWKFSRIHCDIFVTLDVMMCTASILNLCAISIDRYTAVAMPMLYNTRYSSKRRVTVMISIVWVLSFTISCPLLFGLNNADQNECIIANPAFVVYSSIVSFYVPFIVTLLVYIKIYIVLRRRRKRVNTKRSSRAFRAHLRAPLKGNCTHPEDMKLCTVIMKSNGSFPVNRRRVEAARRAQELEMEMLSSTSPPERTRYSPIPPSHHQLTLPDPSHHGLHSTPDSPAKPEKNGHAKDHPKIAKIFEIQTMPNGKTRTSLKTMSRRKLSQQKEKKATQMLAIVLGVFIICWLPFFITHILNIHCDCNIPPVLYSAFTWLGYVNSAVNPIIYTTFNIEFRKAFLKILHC
Protocol: (§1) 2-2: Binding Assays of Dopamine Receptor Family
(§2) The radioligands used were [^3H]spiperone (for hD2L and hD3 receptors, 1 nM) and [^3H] YM-09151-2 (for hD4.2 receptor, 0.06 nM). Radioligand bindings were performed by the protocols provided by the supplier of receptor membranes (BioSignal Packard Inc., Montreal, Canada). Briefly, the buffer used in D2 or D3 receptor binding assay was 50 mM Tris-HCl (pH 7.4), 10 mM MgCl2, 1 mM EDTA, or 50 mM Tris-HCl (pH 7.4), 5 mM MgCl2 5 mM EDTA, 5 mM KCl, 1.5 mM CaCl2, 120 mM NaCl, respectively. In [^3H] YM-09151-2 receptor binding assays, the buffer containing 50 mM Tris-HCl (pH 7.4), 5 mM MgCl2, 5 mM EDTA, 5 mM KCl and 1.5 mM CaCl2 was used. […] Competition binding studies were carried out with 7-8 concentrations of the test compound run in duplicate tubes, and isotherms from three assays were calculated by computerized nonlinear regression analysis (GraphPad Prism Program, San Diego, […]) to yield median inhibitory concentration (IC50) values.

hD3 receptor = molecular target: T6, hD3 receptor (Homo sapiens, UniProt P35462); experiment: Dopamine receptor family binding: D3 ([3H]spiperone); settings: [3H]spiperone 1 nM; read-out: Binding affinity, IC50 (nM), D3
T6 construct: purchased BioSignal Packard Inc., Montreal, Canada
T6 sequence (P35462 whole entry): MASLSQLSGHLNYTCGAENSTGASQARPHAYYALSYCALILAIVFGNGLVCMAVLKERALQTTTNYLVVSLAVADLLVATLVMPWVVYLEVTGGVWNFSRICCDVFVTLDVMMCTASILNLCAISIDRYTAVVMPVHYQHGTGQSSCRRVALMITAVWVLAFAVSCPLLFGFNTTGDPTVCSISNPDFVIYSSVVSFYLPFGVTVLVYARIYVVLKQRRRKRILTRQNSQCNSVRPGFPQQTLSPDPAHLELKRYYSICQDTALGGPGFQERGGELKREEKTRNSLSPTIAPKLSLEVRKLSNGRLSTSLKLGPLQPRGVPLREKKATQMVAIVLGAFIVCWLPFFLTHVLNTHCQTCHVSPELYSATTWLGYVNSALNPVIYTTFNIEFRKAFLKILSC

hD4.2 receptor = molecular target: T7, hD4.2 receptor (Homo sapiens, UniProt P21917, DEL265-296); experiment: Dopamine receptor family binding: D4 ([3H]YM-09151-2); settings: [3H]YM-09151-2 0.06 nM; read-out: Binding affinity, IC50 (nM), D4
T7 construct: purchased BioSignal Packard Inc., Montreal, Canada
T7 sequence (P21917 with tags, fused parts or gaps DEL265-296): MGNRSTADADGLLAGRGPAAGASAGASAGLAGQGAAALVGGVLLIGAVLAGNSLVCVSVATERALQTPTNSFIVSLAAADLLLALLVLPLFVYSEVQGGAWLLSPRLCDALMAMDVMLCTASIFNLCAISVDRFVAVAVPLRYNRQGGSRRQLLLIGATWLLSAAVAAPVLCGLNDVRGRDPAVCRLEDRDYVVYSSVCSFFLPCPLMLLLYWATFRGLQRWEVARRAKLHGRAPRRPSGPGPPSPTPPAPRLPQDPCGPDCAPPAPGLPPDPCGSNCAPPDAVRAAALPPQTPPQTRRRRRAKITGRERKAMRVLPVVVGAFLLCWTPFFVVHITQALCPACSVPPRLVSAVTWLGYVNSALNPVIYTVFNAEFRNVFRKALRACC
Protocol: as §1, §2

mice = experiment: Rotarod deficit; settings: mouse, in vivo
Protocol: The mouse was placed on a 1 inch diameter knurled plastic rod rotating at 6 rpm (Ugo-Basile, Milano, Italy), and the rotarod deficit (%) was obtained by counting the number of animals fallen from the rotating rod within 1 min (Dunham et al., 1957) at 30, 60, 90 and 120 min after the injection of test compound.

[1] = molecular target: Human serotonin 5-HT6 receptor (Homo sapiens, UniProt P50406); experiment: [3H]LSD binding assay on cloned 5-HT6 receptor; settings: IC50 (nM)
Human serotonin 5-HT6 receptor, sequence (P50406 whole entry): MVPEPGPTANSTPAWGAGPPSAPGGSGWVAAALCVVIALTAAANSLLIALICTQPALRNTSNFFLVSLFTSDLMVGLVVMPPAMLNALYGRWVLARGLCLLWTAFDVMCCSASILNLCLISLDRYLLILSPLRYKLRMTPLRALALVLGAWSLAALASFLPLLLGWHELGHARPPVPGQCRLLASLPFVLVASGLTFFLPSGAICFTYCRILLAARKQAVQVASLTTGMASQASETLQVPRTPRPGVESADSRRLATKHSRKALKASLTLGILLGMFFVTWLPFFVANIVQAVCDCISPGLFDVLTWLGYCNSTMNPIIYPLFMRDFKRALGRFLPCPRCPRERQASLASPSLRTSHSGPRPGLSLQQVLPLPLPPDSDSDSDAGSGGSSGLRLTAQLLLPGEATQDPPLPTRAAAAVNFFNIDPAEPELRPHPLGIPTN

rats [2] = experiment: Apomorphine-induced disruption of prepulse inhibition (PPI) of acoustic startle; settings: for effect on PPI of compound alone vs vehicle control: rats, 2.5, 5, 10 & 20 mg/kg, without apomorphine; for effect on PPI of compound alone vs vehicle control / reversal of disruption of PPI by apomorphine: i.p.; for mean startle amplitude vs apomorphine control group / reversal of disruption of PPI by apomorphine: rats; for mean startle amplitude vs apomorphine control group: administered 30 min before apomorphine; for reversal of disruption of PPI by apomorphine: pretreatment i.p. 30 min before apomorphine 2 mg/kg
[3] = tested on: HeLa cells transfected with the human 5-HT6 receptor; experiment: Cytotoxicity in HeLa cells of the cAMP assay; type: cell-based; settings: at the concentrations tested (0.001-10 μM)
5-HT6 receptors [4] = molecular target: T8, 5-HT6 receptors (Homo sapiens, UniProt P50406); experiment: Adenylyl cyclase activity (cAMP accumulation) in HeLa cells transfected with human 5-HT6 receptor
T8 sequence (P50406 whole entry): as above

5-HT6 receptors [5] = molecular target: T8, 5-HT6 receptors; settings: human 5-HT6 receptors, Glennon et al.; cited from earlier work
rat = settings: cited from earlier work; for anticonvulsant activity: earlier finding
rats [6] = settings: cited from earlier work
rats [7] = settings: cited from earlier work; remark: listed apart in the source
[8] = frontal cortex and dorsal hippocampus; cited from earlier work
[9] = background art; cited from earlier work
5-HT6 receptors [10] = molecular target: T8, 5-HT6 receptors; settings: antipsychotics, Roth et al. 1994; cited from earlier work
[11] = Binding affinity, 5-HT6, Table 4
[12] = binding affinity to the 5-HT6 receptor, Table 2, 1.87 nM [3H]LSD, cloned human receptor membranes from Sf21 cells, 37° C. 60 min
[13] = HeLa, read-out: inhibition of 0.3 μM serotonin (5-HT)-induced increase in cAMP levels

Row | SMILES | IC50 (5-HT1a) | IC50 (5-HT2a) | IC50 (5-HT2c) | IC50 (5-HT7) | IC50 (D1) | IC50 (hD2L receptor) | IC50 (hD3 receptor) | IC50 (hD4.2 receptor) | melting point | IC50 [1, 11] | IC50 [1, 12] | reversal of disruption of PPI by apomorphine (rats [2]) | further results
1 | CN1CCN(c2cc(Cl)cc3c2S(=O)(=O)N(Cc2ccccc2)C(=O)N3Cc2ccccc2)CC1 [Example 1, 2,4-Dibenzyl-6-chloro-8-(4-methyl-piperazin-1-yl)-1,1-dioxo-1,4-dihydro-2H-1λ^6-benzo[1,2,4]thiadiazin-3-one] | 997 nM | 354 nM | 785 nM | 6580 nM | 3050 nM | 5810 nM | 633 nM | > 10000 nM | 100 to 101 °C | 1.9 nM | 1.9 nM | reversed significantly | rotarod ataxia / rotarod deficit (in words) (mice): did not show any rotarod ataxia; median neurotoxic dose (TD50), rotarod (mice; ip): more than 300 □/□; effect on PPI of compound alone vs vehicle control (rats [2]): no significant effect; mean startle amplitude vs apomorphine control group (rats [2]): no significant differences
2 | O=C1N(Cc2ccccc2)c2cc(Cl)cc(N3CCNCC3)c2S(=O)(=O)N1Cc1ccccc1 [Example 44, 2,4-Dibenzyl-6-chloro-1,1-dioxo-8-piperazin-1-yl-1,4-dihydro-2H-1λ^6-benzo[1,2,4]thiadiazin-3-one] | 5400 nM | 1160 nM | 1880 nM | > 10000 nM | 6390 nM | 667 nM | 1210 nM | > 10000 nM | 108 to 109 °C | 1 nM | 0.9 nM | reversed significantly | cytotoxicity [3]: did not show any cytotoxicity; TD50 relative to effective doses obtained in the PPI test (mice): about 8 times; rotarod ataxia / rotarod deficit (in words) (mice): moderate rotarod deficit; effect on PPI of compound alone vs vehicle control (rats [2]): no significant effect; mean startle amplitude vs apomorphine control group (rats [2]): no significant differences; IC50 (5-HT6 receptors [4]): 67.8 nM; 5-HT-induced increase in cAMP level inhibited (in words) (5-HT6 receptors [4]; FIG. 1): inhibited; inhibition at 0.001 µM (5-HT6 receptors [4]; [13]): 0%; inhibition at 0.01 µM (5-HT6 receptors [4]; [13]): 8%; inhibition at 0.1 µM (5-HT6 receptors [4]; [13]): 63%; inhibition at 1 µM (5-HT6 receptors [4]; [13]): 100%; inhibition at 10 µM (5-HT6 receptors [4]; [13]): 100%
3 | Cc1cc(C)cc(CCCN2C(=O)N(Cc3ccccc3)c3cc(Cl)cc(N4CCNCC4)c3S2(=O)=O)c1 [Example 66, 4-Benzyl-6-chloro-2-[3-(3,5-dimethyl-phenyl)-propyl]-1,1-dioxo-8-piperazin-1-yl-1,4-dihydro-2H-1λ^6-benzo[1,2,4]thiadiazin-3-one] | 1840 nM | 710 nM | 498 nM | 4530 nM | 1180 nM | 1640 nM | 488 nM | > 10000 nM | 226 to 228 °C | 3.8 nM | 3.8 nM |  | 
4 | COc1ccc2c(c1)c(CCN(C)C)cn2S(=O)(=O)c1ccccc1 [MS-245] |  |  |  |  |  |  |  |  |  |  |  |  | pA2, antagonist (5-HT6 receptors [5]): 8.88
5 | CNc1cc(NS(=O)(=O)c2ccc(N)cc2)nc(NC)n1 [Ro 04-6790] |  |  |  |  |  |  |  |  |  |  |  |  | anticonvulsant activity (rat): possess anticonvulsant activity; food intake (rats [6]): decreased food intake
6 | COc1ccc(NS(=O)(=O)c2sc3ccc(Cl)cc3c2C)cc1N1CCNCC1 [SB-271046, reference compound] |  |  |  |  |  |  |  |  |  |  |  | did not reverse | retention of a previously learned task in water maze (rats [7]): significant improvement; extracellular glutamate levels [8]: increased extracellular glutamate levels in frontal cortex and dorsal hippocampus by several fold; anticonvulsant activity (rat): possess anticonvulsant activity
7 | COc1ccc(S(=O)(=O)Nc2cc(Br)cc(F)c2Br)cc1N1CCNCC1 [SB-357134] |  |  |  |  |  |  |  |  |  |  |  |  | bioavailability (in words) [9]: excellent oral bioavailability; blood clearance (in words) [9]: low clearance rate; retention of a previously learned task in water maze (rats [7]): significant improvement; seizure threshold (rat maximal electroseizure threshold) (rat; oral administration): potent and dose-dependent increase
8 | CN(C)CCCN1c2ccccc2Sc2ccc(Cl)cc21 [chlorpromazine] |  |  |  |  |  |  |  |  |  |  |  |  | binding affinity at 5-HT6 receptors (in words) (5-HT6 receptors [10]): high affinity
9 | CN(C)CC/C=C1/c2ccccc2Sc2ccc(Cl)cc21 [chlorprothixene] |  |  |  |  |  |  |  |  |  |  |  |  | binding affinity at 5-HT6 receptors (in words) (5-HT6 receptors [10]): high affinity
